Where a name gives a salt, the structure may show the parent alone.
Columns and labels:
[1] = system: iPSC differentiation cultures; test: Order and timing of Stage 1 growth factor addition, preMK yields; format: cell-based, human; conditions: Experiment B
[2] = system: human washed platelets; test: Small-molecule loading of human washed platelets by passive diffusion; format: cell-based; conditions: 100 μM, 1e7 platelets in 1 ml, ambient temperature, dialysis cassette
Experimental: 100 μM of Doxorubicin was used with a preparation of 1e7 platelets in 1 ml of buffer and incubated at ambient temperature for 30, 120, 240, and 1440 minutes under constant agitation on an orbital shaker in a dialysis cassette (Thermofisher #88400). […] A kinetic study was employed to understand the minimum and maximum amount of time necessary for doxorubicin encapsulation in the washed platelets.

[3] = system: iPSC differentiation cultures on Laminin 521; test: WNT agonist addition to iPSC directed differentiation (immunofluorescence); format: cell-based, human; conditions: for Stage 1 differentiation efficiency at day 6 (CD31 and CD34 immunofluorescence): 0.6 μM CHIR98014 or 6 μM CHIR99021 for the first 48 hours
Description: WNT signaling is important during development. The GSK3 kinase inhibitors CHIR98014 and CHIR99021 act as WNT agonists. […] The control and CHIR98014 cultures were then transitioned to Stage 2, where the production and release of preMKs were tracked by immunofluorescence staining of CD41 and CD43.

[4] = system: iPSC 3D differentiation cultures; test: Soluble Laminin 521 addition in 3D iPSC differentiation, preMK yields; format: cell-based, human; conditions: for preMK yields in Stage 2 vs control without addition: addition at Day −1 or Day 6
Experimental: […] 24 hours later, the media was replaced with Stage 1 media and media exchanges were performed for 6 days. […] Media was then exchanged with Stage 2 media, with or without soluble Laminin 521. 24 hours later, daily half media exchanges were performed for up to 6 additional days.

In the case of “FGF2: basic fibroblast growth factor, Stage 1 media growth factor”, the “requirement of growth factor during Stage 1 differentiation” value [1] is reported as “critical for differentiation to proceed effectively”.

In the case of COc1cccc2c1C(=O)c1c(O)c3c(c(O)c1C2=O)C[C@@](O)(C(=O)CO)C[C@@H]3O[C@H]1C[C@H](N)[C@H](O)[C@H](C)O1 [doxorubicin, Doxorubicin hydrochloride], the “incubation time sufficient to see detectable doxorubicin in platelets” value [2] is reported as 30 min.

With CHIR98014 the “Stage 1 differentiation efficiency at day 6 (CD31 and CD34 immunofluorescence)” value [3] was “dramatic increase” and the “Stage 2 output (visual estimation of CD41+ cells)” value ([3]; 0.6 μM in first 48 hours of Stage 1) was “higher output”.

Cc1c[nH]c(-c2cnc(NCCNc3ccc(C#N)cn3)nc2-c2ccc(Cl)cc2Cl)n1 [CHIR99021] was tested, and the “Stage 1 differentiation efficiency at day 6 (CD31 and CD34 immunofluorescence)” value [3] was “dramatic increase”.

With “Laminin 521: soluble recombinant human protein Laminin 521” the “preMK yields in Stage 2 vs control without addition” value ([4]; 96-well U-bottom ultra-low adherent plate) was “increased the preMK yields”, the “preMK yields in Stage 2 vs control without addition” value ([4]; agitated 6-well ultra-low adherent plate on orbital shaker) was “increased the preMK yields” and the “Laminin 521 effect on preMK yields with single-cell passaged iPSCs” value ([4]; self-aggregation in NutriStem) was “effect was amplified”.

B1: BMP4: bone morphogenic protein 4, Stage 1 media growth factor (protein, UniProt P12644 293-408, looked up)
Bone morphogenetic protein 4: SPKHHSQRARKKNKNCRRHSLYVDFSDVGWNDWIVAPPGYQAFYCHGDCPFPLADHLNSTNHAIVQTLVNSVNSSIPKACCVPTELSAISMLYLDEYDKVVLKNYQEMVVEGCGCR
In the case of B1, the “requirement of growth factor during Stage 1 differentiation” value [1] is reported as “dispensable beyond 24 hours”.

Reference: US12403161B2, “Compositions for drug delivery and methods of use thereof” (Stellular Bio, Inc., priority 2018, dated 2025)
